*1 amine or outer side, *2 acyl side, *3 side chain or, on linkers, in order; H or OH if unused. Where a SMILES comes first, the peptide text is derived from it. Side-chain parts run from the residue outwards. [ ]: non-standard residue; d: D form. The star is where a group is joined. C20 diacid = O=C(O)CCCCCCCCCCCCCCCCCCC(=O)*; C18 diacid = O=C(O)CCCCCCCCCCCCCCCCC(=O)*; γGlu = O=C(O)[C@H](CCC(=O)[*:2])N[*:1]; εLys = N[C@@H](CCCCN[*:1])C(=O)[*:2]; AEEA = NCCOCCOCC(=O)O; Aib = CC(C)(N)C(=O)O
Assays:
[1] = Pharmacokinetic study in minipigs, i.v. administration; set-up: species or system Göttingen minipigs; conditions: female, Göttingen, minipig, in vivo, iv; minipigs, i.v. administration, harmonic mean; read-out: Terminal half-life t1/2 (converted)
Method in brief: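 Female Göttingen minipigs (7-14 months, 16-35 kg), fasted ~18 h pre-dose to 4 h post-dose, received i.v. injections of usually 1.5-2 nmol/kg via central venous catheter. Plasma sampled up to 14 days, assayed by ELISA or LCMS; terminal half-life (harmonic mean) from non-compartmental analysis.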

[2] = Maximal efficacy study in DIO mice, daily s.c. dose titration for up to 60 days (body weight, food intake); format: in vivo, C57BL/6J male mice
Method: The purpose of this example is to assess the in vivo effect of selected triple agonists on pharmacodynamic parameters in diet-induced obese (DIO) mice. The animals were treated once daily via subcutaneous injection with a liquid formulation of the triple agonist to be tested to assess effects on body weight, foot intake, and glucose tolerance.
C57BL/6J male mice were purchased from Jackson Laboratories at approximately 8 weeks of age. Mice were group housed and fed a high-fat, high-sugar diet from Research Diets (D12331). Mice were maintained on this diet for 12 weeks prior to initializing the pharmacology studies. Mice exceeding a measured body weight of 50 grams were considered diet-induced obese (DIO) and included in pharmacology studies. Mice were exposed to a controlled 12 h:12 h light:dark cycle at ambient room temperature (22° C.) with ab libitum access to food and water. Studies were approved by and performed according to the guidelines of the Institutional Animal Care and Use Committee of the University of Cincinnati.
All compounds in the study were formulated in the following buffer: 50 mM phosphate; 70 mM sodium chloride; 0.05% Tween-80, pH 7.4. Dosing solutions were formulated in glass vials and stored at 2-8° C. Dosing solutions were brought to room temperature before dosing and returned to 2-8° C. after dosing.
DIO mice were distributed into groups (n=8 per group) such that statistical variations in the mean and standard deviations of fat mass and body weight were minimized between groups. The animals were grouped to receive treatment as follows: Vehicle or GLP-1/GIP/Gcg receptor triple agonists as described herein, where vehicle is 50 mM phosphate, 70 mM sodium chloride; 0.05% (v/v) Tween-80, pH 7.4. The test compounds were dissolved in the vehicle, to stock concentrations of […], then diluted 50- to 200-fold in the vehicle to achieve the desired dosing solution concentrations. Animals were dosed subcutaneously once daily in the morning for each day of treatment with dosing solution at a volume of 2-5 μL per gram of body weight as necessary to achieve the desired dose (e.g. 0.3 nmol/kg, 1.0 nmol/kg, or 3.0 nmol/kg).
Body weight (BW) and food intake were measured immediately prior to dosing each day. The percent change in body was calculated individually for each mouse based on initial body weight prior to the first injection.
In one study, DIO mice received a daily subcutaneous dose for up to 60 days of one of the following: vehicle, Compound No. 21, Compound No. 30, or Compound No. 33. The dose of each compound was up-titrated to maximal efficacy based on the titration schedule included in Table 4. Mice that achieved body weight normalization, defined as a body weight of 22.5 g or less, were voluntarily removed from the study. All triple agonist compounds tested resulted is substantially greater reductions of body weight and food intake than vehicle. […] This may be explained by the similar GLP-1R and GIPR in vitro potency but reduced in vitro GcgR potency of Compound No. 21 compared to Compound No. 30 and Compound No. 33 when investigated with the protocol described in Example 2 except using the mouse-specific receptors.

[3] = molecular target: T1, human GLP-1 receptor (Homo sapiens, UniProt P43220); assay: In vitro functional potency (CRE luciferase; whole cells), human GLP-1R; format: cell-based; conditions: BHK CRE luc2P hGLP-1R whole cells
T1 construct: expressed in transfected cells; host or cells: BHK cells (parent line BHKTS13) containing CRE luciferase
Method: (§1) The purpose of this example is to test the functional activity, or potency, of the compounds in vitro at the human and mouse GLP-1, GIP, and Gcg receptors. The in vitro functional potency is the measure of target receptor activation in a whole cell assay.
(§2) In vitro functional potency was determined by measuring the response of the target receptor in a reporter gene assay in individual cell lines. The assay was performed in stably transfected BHK cell lines that expresses one of the following G-protein coupled receptors: human GLP-1 receptor, human GIP receptor, human Gcg receptor, mouse GLP-1 receptor, mouse GIP receptor, or mouse Gcg receptor; and where each cell line contains the DNA for the cAMP response element (CRE) coupled to a promoter and the gene for firefly luciferase (CRE luciferase). When the respective receptor is activated, it results in the production of cAMP, which in turn results in expression of the luciferase protein. When assay incubation is completed, luciferase substrate (luciferin) is added resulting in the enzymatic conversion of luciferin to oxyluciferin and producing bioluminescence. The luminescence is measured as the readout for the assay.
(§3) The cells lines used in these assays were BHK cells with BHKTS13 as a parent cell line. The cell lines were derived from a clone containing the CRE luciferase element and were established by further transfection with the respective receptor to obtain the relevant cell line.
(§4) The cells were cultured at 37° C. with 5% CO2 in Cell Culture Medium. They were aliquoted and stored in liquid nitrogen. The cells were kept in continuous culture and were seeded out the day before each assay.
(§5) GLP-1R and GcgR Cell Culture Medium consisted of DMEM medium with 10% FBS, 500 µg/mL G418, and 300 µg/mL hygromycin. GIPR Cell Culture Medium consisted of DMEM medium with 10% FBS, 400 µg/mL G418, and 300 µg/mL hygromycin. Assay Buffer consisted of DMEM w/o phenol red, 10 mM Hepes, 1× Glutamax, 1% ovalbumin, and 0.1% Pluronic F-68.
(§6) • 1) Cells were plated at 5000 cells/well and incubated overnight in the assay plate. • 2) Cells were washed once in DPBS. • 3) Stocks of the test compounds and reference compounds in concentrations ranging from 100-300 pM were diluted 1:150 in Assay Buffer.
(§7) The data from the microtiter plate reader was first regressed in an Excel in order to calculate the x-axis, log scale concentrations based on the individual test compound's stock concentration and the dilutions of the assay. […] The software performs a non-linear regression (log(agonist) vs response). A minimum of two replicates was measured for each sample. The reported values are averages of the replicates.

[4] = molecular target: T2, human Gcg receptor (Homo sapiens, UniProt P47871); assay: In vitro functional potency (CRE luciferase; whole cells), human GcgR; format: cell-based; conditions: BHK CRE luc2P hGcgR whole cells; for EC50: Table 2, read-out: hGcgR CRE Luc EC50
T2 construct: expressed in transfected cells; host or cells: BHK cells (parent line BHKTS13) containing CRE luciferase
Method: as §1, §2, §3, §4, §5, §6, §7

[5] = molecular target: T3, human GIP receptor (Homo sapiens, UniProt P48546); assay: In vitro functional potency (CRE luciferase; whole cells), human GIPR; format: cell-based; conditions: BHK CRE luc2P hGIPR whole cells; Table 1, position of substituent varied
T3 construct: expressed in transfected cells; host or cells: BHK cells (parent line BHKTS13) containing CRE luciferase
T3 sequence (P48546 22-466): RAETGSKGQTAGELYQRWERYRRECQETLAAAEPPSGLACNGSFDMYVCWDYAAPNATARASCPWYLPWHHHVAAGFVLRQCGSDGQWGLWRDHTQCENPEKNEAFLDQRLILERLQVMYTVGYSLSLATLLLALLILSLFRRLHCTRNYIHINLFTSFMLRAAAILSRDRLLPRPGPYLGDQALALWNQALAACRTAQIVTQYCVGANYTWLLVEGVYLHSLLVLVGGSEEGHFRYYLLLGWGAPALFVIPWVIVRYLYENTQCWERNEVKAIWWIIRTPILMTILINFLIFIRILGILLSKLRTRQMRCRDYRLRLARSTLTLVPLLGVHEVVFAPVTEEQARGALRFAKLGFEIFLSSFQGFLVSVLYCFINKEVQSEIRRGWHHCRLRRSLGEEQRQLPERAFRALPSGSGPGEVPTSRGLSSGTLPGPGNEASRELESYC
Method: as §1, §2, §3, §4, §5, §6, §7

[6] = s.c. once daily, dose titration of Table 4, last day of treatment, mean ± SEM
[7] = Table 1, position of substituent varied

T2 sequence (P47871 26-477): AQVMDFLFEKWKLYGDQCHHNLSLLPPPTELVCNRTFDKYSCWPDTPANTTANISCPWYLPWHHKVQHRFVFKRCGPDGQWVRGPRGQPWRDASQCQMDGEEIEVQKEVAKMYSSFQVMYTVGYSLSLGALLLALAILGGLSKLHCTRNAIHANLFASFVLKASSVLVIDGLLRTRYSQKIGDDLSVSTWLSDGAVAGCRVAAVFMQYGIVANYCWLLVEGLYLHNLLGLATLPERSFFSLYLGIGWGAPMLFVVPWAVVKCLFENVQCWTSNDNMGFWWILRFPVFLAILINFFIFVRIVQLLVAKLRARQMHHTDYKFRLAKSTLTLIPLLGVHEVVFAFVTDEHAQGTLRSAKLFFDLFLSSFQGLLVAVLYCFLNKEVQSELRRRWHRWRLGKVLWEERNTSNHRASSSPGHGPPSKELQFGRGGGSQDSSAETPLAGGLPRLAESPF
T1 sequence (P43220 24-463): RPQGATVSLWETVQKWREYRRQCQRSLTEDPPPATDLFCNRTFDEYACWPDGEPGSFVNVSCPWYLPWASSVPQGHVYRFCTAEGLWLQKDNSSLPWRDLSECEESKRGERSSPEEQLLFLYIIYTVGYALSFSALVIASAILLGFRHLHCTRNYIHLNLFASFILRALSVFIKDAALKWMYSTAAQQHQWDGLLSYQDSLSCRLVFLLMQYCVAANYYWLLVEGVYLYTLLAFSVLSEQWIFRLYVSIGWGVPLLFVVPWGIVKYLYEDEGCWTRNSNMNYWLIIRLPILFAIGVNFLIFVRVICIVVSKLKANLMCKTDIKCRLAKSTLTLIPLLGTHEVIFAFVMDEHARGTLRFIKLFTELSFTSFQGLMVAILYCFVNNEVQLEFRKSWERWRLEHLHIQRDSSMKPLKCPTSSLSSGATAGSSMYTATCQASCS

Compound: CC[C@H](C)[C@H](NC(=O)[C@H](CO)NC(=O)[C@H](Cc1ccc(O)cc1)NC(=O)[C@H](CC(=O)O)NC(=O)[C@H](CO)NC(=O)[C@@H](NC(=O)[C@H](Cc1ccccc1)NC(=O)[C@@H](NC(=O)CNC(=O)[C@H](Cc1c[nH]cn1)NC(=O)C(C)(C)NC(=O)[C@@H](N)Cc1c[nH]cn1)[C@@H](C)O)[C@@H](C)O)C(=O)N[C@@H](Cc1ccc(O)cc1)C(=O)N[C@@H](CC(C)C)C(=O)N[C@@H](CCC(=O)O)C(=O)N[C@@H](CCCCNC(=O)[C@@H](N)CCCCNC(=O)[C@@H](N)CCCCNC(=O)CC[C@H](NC(=O)CCCCCCCCCCCCCCCCCCC(=O)O)C(=O)O)C(=O)N[C@@H](CCCCN)C(=O)N[C@@H](C)C(=O)N[C@@H](C)C(=O)NC(C)(C)C(=O)N[C@@H](CCC(=O)O)C(=O)N[C@@H](Cc1ccccc1)C(=O)N[C@H](C(=O)N[C@@H](CCC(N)=O)C(=O)N[C@@H](Cc1c[nH]c2ccccc12)C(=O)N[C@@H](CC(C)C)C(=O)N[C@@H](CC(C)C)C(=O)N[C@@H](CCC(=O)O)C(=O)NCC(=O)NCC(=O)N1CCC[C@H]1C(=O)N[C@@H](CO)C(=O)N[C@@H](CO)C(=O)NCC(=O)N[C@@H](C)C(=O)N1CCC[C@H]1C(=O)N1CCC[C@H]1C(=O)N1CCC[C@H]1C(=O)N[C@@H](CO)C(N)=O)C(C)C [Compound No. 33] (H-H[Aib]HGTFTSDYSIYLEK([εLys-εLys-γGlu-C20 diacid])KAA[Aib]EFVQWLLEGGPSSGAPPPS-NH2)
- half-life [1]: 2820 min
- Absolute BW (grams) Day 0 ([2]; Day 0 (baseline), mean ± SEM): 54.9 ± 2.6 grams
- Absolute BW (grams) Last day of treatment [2, 6]: 24.8 ± 1.4 grams
- Change in BW (%) Last day of treatment [2, 6]: −54.5 ± 3.5%
- Average food intake per mouse (grams/day) ([2]; s.c. once daily, dose titration of Table 4, mean ± SEM, n = 1-2): 1.38 ± 0.25 grams/day

Compound: CC[C@H](C)[C@H](NC(=O)[C@H](CO)NC(=O)[C@H](Cc1ccc(O)cc1)NC(=O)[C@H](CC(=O)O)NC(=O)[C@H](CO)NC(=O)[C@@H](NC(=O)[C@H](Cc1ccccc1)NC(=O)[C@@H](NC(=O)CNC(=O)[C@H](Cc1c[nH]cn1)NC(=O)C(C)(C)NC(=O)[C@@H](N)Cc1c[nH]cn1)[C@@H](C)O)[C@@H](C)O)C(=O)N[C@@H](Cc1ccc(O)cc1)C(=O)N[C@@H](CC(C)C)C(=O)N[C@@H](CCC(=O)O)C(=O)N[C@@H](CCCCNC(=O)[C@@H](N)CCCCNC(=O)[C@@H](N)CCCCNC(=O)CC[C@H](NC(=O)CCCCCCCCCCCCCCCCC(=O)O)C(=O)O)C(=O)N[C@@H](CCCCN)C(=O)N[C@@H](Cc1ccc(O)cc1)C(=O)N[C@@H](C)C(=O)NC(C)(C)C(=O)N[C@@H](CCC(=O)O)C(=O)N[C@@H](Cc1ccccc1)C(=O)N[C@H](C(=O)N[C@@H](CCC(N)=O)C(=O)N[C@@H](Cc1c[nH]c2ccccc12)C(=O)N[C@@H](CC(C)C)C(=O)N[C@@H](CC(C)C)C(=O)N[C@@H](CCC(=O)O)C(=O)NCC(=O)NCC(=O)N1CCC[C@H]1C(=O)N[C@@H](CO)C(=O)N[C@@H](CO)C(=O)NCC(=O)N[C@@H](C)C(=O)N1CCC[C@H]1C(=O)N1CCC[C@H]1C(=O)N1CCC[C@H]1C(=O)N[C@@H](CO)C(N)=O)C(C)C [Compound No. 38] (H-H[Aib]HGTFTSDYSIYLEK([εLys-εLys-γGlu-C18 diacid])KYA[Aib]EFVQWLLEGGPSSGAPPPS-NH2)
- EC50 ([3]; Table 2, read-out: hGLP-1R CRE Luc EC50): 2.8 pM
- EC50 [4]: 6.4 pM

Compound: CC[C@H](C)[C@H](NC(=O)[C@H](CO)NC(=O)[C@H](Cc1ccc(O)cc1)NC(=O)[C@H](CC(=O)O)NC(=O)[C@H](CO)NC(=O)[C@@H](NC(=O)[C@H](Cc1ccccc1)NC(=O)[C@@H](NC(=O)CNC(=O)[C@H](Cc1c[nH]cn1)NC(=O)C(C)(C)NC(=O)[C@@H](N)Cc1c[nH]cn1)[C@@H](C)O)[C@@H](C)O)C(=O)N[C@@H](CC(C)C)C(=O)N[C@@H](CC(C)C)C(=O)N[C@@H](CCC(=O)O)C(=O)N[C@@H](CCCCNC(=O)[C@@H](N)CCCCNC(=O)[C@@H](N)CCCCNC(=O)CC[C@H](NC(=O)CCCCCCCCCCCCCCCCC(=O)O)C(=O)O)C(=O)N[C@@H](CCC(N)=O)C(=O)N[C@@H](C)C(=O)N[C@@H](C)C(=O)N[C@@H](Cc1c[nH]cn1)C(=O)N[C@@H](CCC(=O)O)C(=O)N[C@@H](Cc1ccccc1)C(=O)N[C@H](C(=O)N[C@@H](CCC(N)=O)C(=O)N[C@@H](Cc1c[nH]c2ccccc12)C(=O)N[C@@H](CC(C)C)C(=O)N[C@@H](CC(C)C)C(=O)N[C@@H](CCC(=O)O)C(=O)NCC(=O)NCC(=O)N1CCC[C@H]1C(=O)N[C@@H](CO)C(=O)N[C@@H](CO)C(=O)NCC(=O)N[C@@H](C)C(=O)N1CCC[C@H]1C(=O)N1CCC[C@H]1C(=O)N1CCC[C@H]1C(=O)N[C@@H](CO)C(=O)O)C(C)C [Compound No. 56] (H-H[Aib]HGTFTSDYSILLEK([εLys-εLys-γGlu-C18 diacid])QAAHEFVQWLLEGGPSSGAPPPS-OH)
- EC50 [4]: 6.4 pM

Compound: CC[C@H](C)[C@H](NC(=O)[C@H](CO)NC(=O)[C@H](Cc1ccc(O)cc1)NC(=O)[C@H](CC(=O)O)NC(=O)[C@H](CO)NC(=O)[C@@H](NC(=O)[C@H](Cc1ccccc1)NC(=O)[C@@H](NC(=O)CNC(=O)[C@H](CCC(N)=O)NC(=O)C(C)(C)NC(=O)[C@@H](N)Cc1ccc(O)cc1)[C@@H](C)O)[C@@H](C)O)C(=O)N[C@@H](Cc1ccc(O)cc1)C(=O)N[C@@H](CC(C)C)C(=O)N[C@@H](CC(=O)O)C(=O)N[C@@H](CCCCN)C(=O)N[C@@H](CCC(N)=O)C(=O)N[C@@H](C)C(=O)N[C@@H](C)C(=O)NC(C)(C)C(=O)N[C@@H](CCC(=O)O)C(=O)N[C@@H](Cc1ccccc1)C(=O)N[C@H](C(=O)N[C@@H](CC(N)=O)C(=O)N[C@@H](Cc1c[nH]c2ccccc12)C(=O)N[C@@H](CC(C)C)C(=O)N[C@@H](CC(C)C)C(=O)N[C@@H](C)C(=O)NCC(=O)NCC(=O)N1CCC[C@H]1C(=O)N[C@@H](CO)C(=O)N[C@@H](CO)C(=O)NCC(=O)N[C@@H](C)C(=O)N1CCC[C@H]1C(=O)N1CCC[C@H]1C(=O)N1CCC[C@H]1C(=O)N[C@@H](CO)C(=O)N[C@@H](CCCCNC(=O)COCCOCCNC(=O)COCCOCCNC(=O)CC[C@H](NC(=O)CCCCCCCCCCCCCCCCC(=O)O)C(=O)O)C(N)=O)C(C)C [Compound No. 59, reference compound] (H-Y[Aib]QGTFTSDYSIYLDKQAA[Aib]EFVNWLLAGGPSSGAPPPSK([AEEA-AEEA-γGlu-C18 diacid])-NH2; N-terminus assumed)
- hGLP-1R CRE Luc EC50 (pM) [3, 7]: lower potency
- hGIPR CRE Luc EC50 (pM) [5]: lower potency
- hGcgR CRE Luc EC50 (pM) [4, 7]: lower potency

From patent US20230391845A1, “GLP-1, GIP AND GLUCAGON RECEPTOR TRIPLE AGONISTS” (priority 2020, published 2023)
